Measurements taken from US8580918B2, “Peptidic GLP-2 agonists” (Ferring B.V., priority 2009, dated 2013).
Where a SMILES comes first, the peptide text is derived from it. [ ]: non-standard residue; d: D form. The star is where a group is joined. X2 = NC(=O)COCC(=O)NCCCOCCOCCOCCCN*; NH(4-picolyl) = c1cc(CN*)ccn1; PEG4 = NCCOCCOCCOCCOCCC(=O)O; Nle = CCCC[C@H](N)C(=O)O; NHBn = c1ccc(CN*)cc1; NHiBu = CC(C)CN*

Assay: Pharmacokinetics in rats after intravenous bolus injection (systemic clearance)
Format: in vivo
Conditions: rat, plasma, 0.2 mg FB/kg, adult male Sprague-Dawley rats, i.v. bolus, dose 0.20 mg FB/kg, read-out: CL (ml/kg/min) Average
How it was run: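 Systemic clearance from noncompartmental analysis as dose per kg over trapezoidal AUC extrapolated to infinity, mean and SD across animals. Plasma (K2EDTA) levels by LC/MS/MS after single IV jugular-vein bolus, 0.1-1.0 mg/kg, in 3-4 cannulated male Sprague-Dawley rats.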

Point of comparison: CCCC[C@H](NC(=O)[C@H](CCC(=O)O)NC(=O)[C@H](CC(=O)O)NC(=O)[C@H](CO)NC(=O)[C@H](Cc1ccccc1)NC(=O)[C@H](CO)NC(=O)CNC(=O)[C@H](CC(=O)O)NC(=O)CNC(=O)[C@@H](N)Cc1cnc[nH]1)C(=O)N[C@H](Cc1ccccc1)C(=O)N[C@H](C(=O)N[C@H](C(=O)N[C@@H](CC(C)C)C(=O)N[C@@H](CC(=O)O)C(=O)N[C@@H](CC(C)C)C(=O)N[C@@H](CC(C)C)C(=O)N[C@@H](C)C(=O)N[C@@H](C)C(=O)N[C@@H](CCCNC(=N)N)C(=O)N[C@@H](CC(=O)O)C(=O)N[C@@H](Cc1ccccc1)C(=O)N[C@H](C(=O)N[C@@H](CC(N)=O)C(=O)N[C@@H](Cc1c[nH]c2ccccc12)C(=O)N[C@@H](CC(C)C)C(=O)N[C@H](C(=O)N[C@@H](CCC(N)=O)C(=O)N[C@H](C(=O)N[C@@H](CCCCN)C(=O)N[C@H](C(=O)N[C@H](C(=O)N[C@@H](CC(=O)O)C(=O)NCC)[C@@H](C)O)[C@@H](C)CC)[C@@H](C)O)[C@@H](C)CC)[C@@H](C)CC)[C@@H](C)CC)[C@@H](C)O [Compound 53, [Gly2,Nle10,D-Phe11,Leu16] hGLP-2(1-33)-NHEt] (H-HGDGSFSDE[Nle][dF]TILDLLAARDFINWLIQTKITD-NHEt), clearance 0.19 mL/kg/min. Against it:
- CCCC[C@H](NC(=O)[C@H](CCC(=O)O)NC(=O)[C@H](CC(=O)O)NC(=O)[C@H](CO)NC(=O)[C@H](Cc1ccccc1)NC(=O)[C@H](CO)NC(=O)CNC(=O)[C@H](CC(=O)O)NC(=O)CNC(=O)[C@@H](N)Cc1c[nH]cn1)C(=O)N[C@H](Cc1ccccc1)C(=O)N[C@H](C(=O)N[C@H](C(=O)N[C@@H](CC(C)C)C(=O)N[C@@H](CC(=O)O)C(=O)N[C@@H](CC(C)C)C(=O)N[C@@H](CC(C)C)C(=O)N[C@@H](C)C(=O)N[C@@H](C)C(=O)N[C@@H](CCCNC(=N)N)C(=O)N[C@@H](CC(=O)O)C(=O)N[C@@H](Cc1ccccc1)C(=O)N[C@H](C(=O)N[C@@H](CC(N)=O)C(=O)N[C@@H](Cc1c[nH]c2ccccc12)C(=O)N[C@@H](CC(C)C)C(=O)N[C@H](C(=O)N[C@@H](CCC(N)=O)C(=O)N[C@H](C(=O)N[C@@H](CCCCN)C(=O)N[C@H](C(=O)N[C@H](C(=O)N[C@@H](CC(=O)O)C(=O)NCc1ccncc1)[C@@H](C)O)[C@@H](C)CC)[C@@H](C)O)[C@@H](C)CC)[C@@H](C)CC)[C@@H](C)CC)[C@@H](C)O [Compound 54, [Gly2,Nle10,D-Phe11,Leu16] hGLP-2(1-33)-NH-4-Pic] (H-HGDGSFSDE[Nle][dF]TILDLLAARDFINWLIQTKITD-{NH(4-picolyl)}) — within 1.5-fold, 0.27 mL/kg/min
- CCCC[C@H](NC(=O)[C@H](CCC(=O)O)NC(=O)[C@H](CC(=O)O)NC(=O)[C@H](CO)NC(=O)[C@H](Cc1ccccc1)NC(=O)[C@H](CO)NC(=O)CNC(=O)[C@H](CC(=O)O)NC(=O)CNC(=O)[C@@H](N)Cc1cnc[nH]1)C(=O)N[C@H](Cc1ccccc1)C(=O)N[C@H](C(=O)N[C@H](C(=O)N[C@@H](CC(C)C)C(=O)N[C@@H](CC(=O)O)C(=O)N[C@@H](CC(C)C)C(=O)N[C@@H](CC(C)C)C(=O)N[C@@H](C)C(=O)N[C@@H](C)C(=O)N[C@@H](CCCNC(=N)N)C(=O)N[C@@H](CC(=O)O)C(=O)N[C@@H](Cc1ccccc1)C(=O)N[C@H](C(=O)N[C@@H](CC(N)=O)C(=O)N[C@@H](Cc1c[nH]c2ccccc12)C(=O)N[C@@H](CC(C)C)C(=O)N[C@H](C(=O)N[C@@H](CCC(N)=O)C(=O)N[C@H](C(=O)N[C@@H](CCCCN)C(=O)N[C@H](C(=O)N[C@H](C(=O)N[C@@H](CC(=O)O)C(=O)NCCOCCOCCOCCOCCC(N)=O)[C@@H](C)O)[C@@H](C)CC)[C@@H](C)O)[C@@H](C)CC)[C@@H](C)CC)[C@@H](C)CC)[C@@H](C)O [Compound 55, [Gly2,Nle10,D-Phe11,Leu16] hGLP-2(1-33)-NH—((CH2)2O)4—(CH2)2—C(O)—NH2] (H-HGDGSFSDE[Nle][dF]TILDLLAARDFINWLIQTKITD[PEG4]-NH2) — within 1.5-fold, 0.23 mL/kg/min
- CCCC[C@H](NC(=O)[C@H](CCC(=O)O)NC(=O)[C@H](CC(=O)O)NC(=O)[C@H](CO)NC(=O)[C@H](Cc1ccccc1)NC(=O)[C@H](CO)NC(=O)CNC(=O)[C@H](CC(=O)O)NC(=O)CNC(=O)[C@@H](N)Cc1c[nH]cn1)C(=O)N[C@H](Cc1ccccc1)C(=O)N[C@H](C(=O)N[C@H](C(=O)N[C@@H](CC(C)C)C(=O)N[C@@H](CC(=O)O)C(=O)N[C@@H](CC(C)C)C(=O)N[C@@H](CC(C)C)C(=O)N[C@@H](C)C(=O)N[C@@H](C)C(=O)N[C@@H](CCCNC(=N)N)C(=O)N[C@@H](CC(=O)O)C(=O)N[C@@H](Cc1ccccc1)C(=O)N[C@H](C(=O)N[C@@H](CC(N)=O)C(=O)N[C@@H](Cc1c[nH]c2ccccc12)C(=O)N[C@@H](CC(C)C)C(=O)N[C@H](C(=O)N[C@@H](CCC(N)=O)C(=O)N[C@H](C(=O)N[C@@H](CCCCN)C(=O)N[C@H](C(=O)N[C@H](C(=O)N[C@@H](CC(=O)O)C(=O)NCCCOCCOCCOCCCNC(=O)COCC(N)=O)[C@@H](C)O)[C@@H](C)CC)[C@@H](C)O)[C@@H](C)CC)[C@@H](C)CC)[C@@H](C)CC)[C@@H](C)O [Compound 56, [Gly2,Nle10,D-Phe11,Leu16] hGLP-2(1-33)-NH—CH2—((CH2)2O)3—(CH2)3—NHC(O)—CH2—O—CH2—C(O)—NH2] (H-HGDGSFSDE[Nle][dF]TILDLLAARDFINWLIQTKITD-X2) — within 1.5-fold, 0.28 mL/kg/min
- CCCC[C@H](NC(=O)[C@H](CCC(=O)O)NC(=O)[C@H](CC(=O)O)NC(=O)[C@H](CO)NC(=O)[C@H](Cc1ccccc1)NC(=O)[C@H](CO)NC(=O)CNC(=O)[C@H](CC(=O)O)NC(=O)CNC(=O)[C@@H](N)Cc1c[nH]cn1)C(=O)N[C@H](Cc1ccccc1)C(=O)N[C@H](C(=O)N[C@H](C(=O)N[C@@H](CC(C)C)C(=O)N[C@@H](CC(=O)O)C(=O)N[C@@H](CC(C)C)C(=O)N[C@@H](CC(C)C)C(=O)N[C@@H](C)C(=O)N[C@@H](C)C(=O)N[C@@H](CCCNC(=N)N)C(=O)N[C@@H](CC(=O)O)C(=O)N[C@@H](Cc1ccccc1)C(=O)N[C@H](C(=O)N[C@@H](CC(N)=O)C(=O)N[C@@H](Cc1c[nH]c2ccccc12)C(=O)N[C@@H](CC(C)C)C(=O)N[C@H](C(=O)N[C@@H](CCC(N)=O)C(=O)N[C@H](C(=O)N[C@@H](CCCCN)C(=O)N[C@H](C(=O)N[C@H](C(=O)N[C@@H](CC(=O)O)C(=O)NCC(C)C)[C@@H](C)O)[C@@H](C)CC)[C@@H](C)O)[C@@H](C)CC)[C@@H](C)CC)[C@@H](C)CC)[C@@H](C)O [Compound 57, [Gly2,Nle10,D-Phe11,Leu16] hGLP-2(1-33)-NH-isobutyl] (H-HGDGSFSDE[Nle][dF]TILDLLAARDFINWLIQTKITD-NHiBu) — within 1.5-fold, 0.17 mL/kg/min
- CCCC[C@H](NC(=O)[C@H](CCC(=O)O)NC(=O)[C@H](CC(=O)O)NC(=O)[C@H](CO)NC(=O)[C@H](Cc1ccccc1)NC(=O)[C@H](CO)NC(=O)CNC(=O)[C@H](CC(=O)O)NC(=O)CNC(=O)[C@@H](N)Cc1c[nH]cn1)C(=O)N[C@H](Cc1ccccc1)C(=O)N[C@H](C(=O)N[C@H](C(=O)N[C@@H](CC(C)C)C(=O)N[C@@H](CC(=O)O)C(=O)N[C@@H](CC(C)C)C(=O)N[C@@H](CC(C)C)C(=O)N[C@@H](C)C(=O)N[C@@H](C)C(=O)N[C@@H](CCCNC(=N)N)C(=O)N[C@@H](CC(=O)O)C(=O)N[C@@H](Cc1ccccc1)C(=O)N[C@H](C(=O)N[C@@H](CC(N)=O)C(=O)N[C@@H](Cc1c[nH]c2ccccc12)C(=O)N[C@@H](CC(C)C)C(=O)N[C@H](C(=O)N[C@@H](CCC(N)=O)C(=O)N[C@H](C(=O)N[C@@H](CCCCN)C(=O)N[C@H](C(=O)N[C@H](C(=O)N[C@@H](CC(=O)O)C(=O)NCc1ccccc1)[C@@H](C)O)[C@@H](C)CC)[C@@H](C)O)[C@@H](C)CC)[C@@H](C)CC)[C@@H](C)CC)[C@@H](C)O [Compound 58, [Gly2,Nle10,D-Phe11,Leu16] hGLP-2(1-33)-NH-Benzyl] (H-HGDGSFSDE[Nle][dF]TILDLLAARDFINWLIQTKITD-NHBn) — 1.9-fold lower, 0.1 mL/kg/min
- CCCC[C@H](NC(=O)[C@H](CCC(=O)O)NC(=O)[C@H](CC(=O)O)NC(=O)[C@H](CO)NC(=O)[C@H](Cc1ccccc1)NC(=O)[C@H](CO)NC(=O)CNC(=O)[C@H](CC(=O)O)NC(=O)CNC(=O)[C@@H](N)Cc1cnc[nH]1)C(=O)N[C@H](Cc1ccccc1)C(=O)N[C@H](C(=O)N[C@H](C(=O)N[C@@H](CC(C)C)C(=O)N[C@@H](CC(=O)O)C(=O)N[C@@H](CC(C)C)C(=O)N[C@@H](CC(C)C)C(=O)N[C@@H](C)C(=O)N[C@@H](C)C(=O)N[C@@H](CCCNC(=N)N)C(=O)N[C@@H](CC(=O)O)C(=O)N[C@@H](Cc1ccccc1)C(=O)N[C@H](C(=O)N[C@@H](CC(N)=O)C(=O)N[C@@H](Cc1c[nH]c2ccccc12)C(=O)N[C@@H](CC(C)C)C(=O)N[C@H](C(=O)N[C@@H](CCC(N)=O)C(=O)N[C@H](C(=O)N[C@@H](CCCCN)C(=O)N[C@H](C(=O)N[C@H](C(=O)N[C@@H](CC(=O)O)C(=O)O)[C@@H](C)O)[C@@H](C)CC)[C@@H](C)O)[C@@H](C)CC)[C@@H](C)CC)[C@@H](C)CC)[C@@H](C)O [Compound 59, [Gly2,Nle10,D-Phe11,Leu16] hGLP-2(1-33)-OH] (H-HGDGSFSDE[Nle][dF]TILDLLAARDFINWLIQTKITD-OH) — within 1.5-fold, 0.22 mL/kg/min
- CCCC[C@H](NC(=O)[C@H](CCC(=O)O)NC(=O)[C@H](CC(=O)O)NC(=O)[C@H](CO)NC(=O)[C@H](Cc1ccccc1)NC(=O)[C@H](CO)NC(=O)CNC(=O)[C@H](CC(=O)O)NC(=O)CNC(=O)[C@@H](N)Cc1c[nH]cn1)C(=O)N[C@H](Cc1ccccc1)C(=O)N[C@H](C(=O)N[C@H](C(=O)N[C@@H](CC(C)C)C(=O)N[C@@H](CC(=O)O)C(=O)N[C@@H](Cc1ccccc1)C(=O)N[C@@H](CC(C)C)C(=O)N[C@@H](C)C(=O)N[C@@H](C)C(=O)N[C@@H](CCCNC(=N)N)C(=O)N[C@@H](CC(=O)O)C(=O)N[C@@H](Cc1ccccc1)C(=O)N[C@H](C(=O)N[C@@H](CC(N)=O)C(=O)N[C@@H](Cc1c[nH]c2ccccc12)C(=O)N[C@@H](CC(C)C)C(=O)N[C@H](C(=O)N[C@@H](CCC(N)=O)C(=O)N[C@H](C(=O)N[C@@H](CCCCN)C(=O)N[C@H](C(=O)N[C@H](C(=O)N[C@@H](CC(=O)O)C(=O)NCCCOCCOCCOCCCNC(=O)COCC(N)=O)[C@@H](C)O)[C@@H](C)CC)[C@@H](C)O)[C@@H](C)CC)[C@@H](C)CC)[C@@H](C)CC)[C@@H](C)O [Compound 60, [Gly2,Nle10,D-Phe11,Phe16] hGLP-2(1-33)-NH—CH2—((CH2)2O)3—(CH2)3—NH—C(O)—CH2—O—CH2—C(O)—NH2] (H-HGDGSFSDE[Nle][dF]TILDFLAARDFINWLIQTKITD-X2) — 1.5-fold higher, 0.29 mL/kg/min
